SMILES strings stand for the structures.

The test system of test [1] is HSP90. As to the kind of experiment: Effects of Tempol on gene expression in cardiac tissue of mice, chip-based microarray. The class given is in vivo. The procedure: To assess the effects of Tempol on gene expression, Tempol was administered to experimental mice at a dose of 5 mg/g of food from 14 months to 31 months after birth. Mice receiving the same food without the addition of Tempol were used as a negative control. At the age of 31 months, the experimental animals were sacrificed and the hearts were surgically removed. The expression of a broad spectrum of genes in the cardiac tissue was assessed using chip-based microarray technology. Such chips are well known in the art and are widely used to assess gene expression.

The subject of test [2] is HSP90. As to the kind of experiment: Treating a human subject with Tempol, serum level of HSP90 following treatment. The class given is in vivo. To be noted: 2000 mg per day for 180 days. The protocol: (§1) A 70-kilogram human subject over the age of 65 is identified as having, or known to have, or suspected of having an increased expression level of HSP90. The human subject is administered a dose of 2000 mg of Tempol (or another nitroxide antioxidant) per day for 180 days. This may be administered in a single dose, or may be administered as a number of smaller doses over a 24-hour period: for example, four 500-mg doses at […]. Following treatment, the serum level of HSP90, is decreased.
A 70-kilogram human subject is identified as having, or known to have, or suspected of having an increased expression level of HSP90. The human subject is administered a dose of 2000 mg of Tempol (or another nitroxide antioxidant) per day for 180 days. This may be administered in a single dose, or may be administered as a number of smaller doses over a 24-hour period: for example, four 500-mg doses at […]. Following treatment, the serum level of HSP90, is decreased.
as §1, with “65 and having a cardiovascular disease” for “65”, “for an increased expression level of HSP90. Or a 70-kilogram human subject over the age of 65 is” for “as having, or”, “have a cardiovascular disease and/or” for “have, or suspected of having an”
A 70-kilogram human subject at risk of developing colorectal cancer is identified for increased expression level of HSP90. Or a 70-kilogram human subject is known to be at risk of developing colorectal cancer and/or have increased expression level of HSP90. The human subject is administered a dose of 2000 mg of Tempol (or another nitroxide antioxidant) per day for 180 days. This may be administered in a single dose, or may be administered as a number of smaller doses over a 24-hour period: for example, four 500-mg doses at […]. Following treatment, the serum level of HSP90, is decreased. […]
A 70-kilogram human subject having an infection (e.g., a bacterial, fungal, or viral infection) is identified for increased expression level of HSP90. Or a 70-kilogram human subject is known to have an infection and/or have increased expression level of HSP90. The human subject is administered a dose of 2000 mg of Tempol (or another nitroxide antioxidant) per day for 180 days. This may be administered in a single dose, or may be administered as a number of smaller doses over a 24-hour period: for example, four 500-mg doses at […]. Following treatment, the serum level of HSP90, is decreased.

As for `CC1(C)CC(O)CC(C)(C)N1[O]` [Tempol, 4-hydroxy-2,2,6,6-tetramethylpiperidine-1-oxyl], in the test on HSP90 [1] (Tempol 5 mg/g of food from 14 months to 31 months after birth, vs same food without Tempol, cardiac tissue at 31 months), the “Fold change (expression of HSP90 in cardiac tissue after Tempol administration)” value is recorded as −2.4. In the test with HSP90 [1] (Tempol 5 mg/g of food from 14 to 31 months after birth, cardiac tissue, result in words), the “HSP90 expression in cardiac tissue” value is listed as “statistically significant decrease in expression”. In addition, the “serum level of HSP90 following treatment” value in the test with HSP90 [2] (Example 2: 70-kilogram human subject over the age of 65 with increased expression level of HSP90) was “decreased”; in the test on HSP90 [2] (Example 3: 70-kilogram human subject with increased expression level of HSP90), “decreased”; with HSP90 [2] (Example 4: 70-kilogram human subject over the age of 65 having a cardiovascular disease), “decreased”; with HSP90 [2] (Example 5: 70-kilogram human subject at risk of developing colorectal cancer), “decreased”; in the test on HSP90 [2] (Example 6: 70-kilogram human subject at risk of developing an autoimmune disease (e.g., rheumatoid arthritis)) it was “decreased”; in the test on HSP90 [2] (Example 7: 70-kilogram human subject at risk of developing a condition due to aging), “decreased”. The “serum level of HSP90 following treatment” value in the test on HSP90 [2] (Example 8: 70-kilogram human subject at risk of developing a neurodegenerative disease (e.g., Parkinson's Disease)) was “decreased”; in the test on HSP90 [2] (Example 9: 70-kilogram human subject having an infection (bacterial, fungal, or viral)), “decreased”.

Source of the values: patent publication US11324737B1, “Modulating expression level of a gene encoding a heat shock protein by treating a human subject with a nitroxide” (priority 2021, dated 2022).
